Data reported in PubChem BioAssay AID977613 (Broad Institute, 2014).
Activity calls are given as the source filed them. The rule behind the calls is not given here.

Test system: Broad 7084-01 inhibitor HTS, set 2
Experiment: single-concentration hits, screen 7084 set 2 (AID 977613);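 note: host cells are infected with parasite promastigotes that become internalized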

Q: Which active concentration does the source give for CN(C)C(=O)C[C@H]1CC[C@H]2[C@@H](COC[C@H](O)CN2CC2CCCC2)O1 here?
A: > 10 µM (inactive)

Q: Which active concentration does the source give for COc1ccc(-c2ccccc2[C@H]2[C@@H](C#N)N(C(=O)NC3CCCCC3)[C@H]2CO)cc1 here?
A: > 10 µM (inactive)

Q: Which active concentration does the source give for COc1ccc(-c2ccccc2[C@H]2[C@@H](C#N)N(C(=O)C3CCCCC3)[C@H]2CO)cc1 here?
A: > 10 µM (inactive)

Q: How did the active concentration turn out when CN(C)CC(=O)N1[C@@H](CO)[C@@H](c2ccccc2)C12CN(CCC(F)(F)F)C2 was run?
A: > 10 µM (inactive)

Q: O=C(C[C@@H]1CC[C@H]2[C@@H](COC[C@@H](O)CN2C(=O)Nc2ccc(Cl)c(Cl)c2)O1)NCc1ccc(Cl)cc1 was tested. Which active concentration did it give?
A: > 10 µM (inactive)

Q: COc1ccccc1C(=O)Nc1ccc2c(c1)C(=O)N(C)[C@@H]1CC[C@@H](CC(=O)NCCc3ccncc3)O[C@H]1CO2 was tested. Which active concentration did it give?
A: > 10 µM (inactive)

Q: With N#C[C@@H]1[C@H](c2ccccc2C2=CCCCC2)[C@@H](CO)N1C(=O)C1CCOCC1 as the compound, how does the active concentration read?
A: > 10 µM (inactive)

Q: With CCS(=O)(=O)N1CCC2(CC1)CN[C@@H](CO)c1[nH]c3cc(OC)ccc3c12 as the compound, how does the active concentration read?
A: > 10 µM (inactive)

Q: With N#Cc1cccc(-c2ccc3c(c2)[C@H]2[C@H](CCN2S(=O)(=O)c2ccc(F)cc2)[C@@H](CO)N3)c1 as the compound, how does the active concentration read?
A: > 10 µM (inactive)

Q: How did the active concentration turn out when O=C(C[C@@H]1CC[C@@H]2[C@H](COC[C@@H](O)CN2Cc2cccc(C(F)(F)F)c2)O1)NCc1ccccc1 was run?
A: > 10 µM (inactive)

Q: Which active concentration does the source give for COc1ccccc1CNC(=O)C[C@@H]1CC[C@@H]2[C@H](COC[C@H](O)CN2C(=O)Nc2ccccc2)O1 here?
A: > 10 µM (inactive)

Q: Which active concentration does the source give for O=C(c1ccncc1)N1C[C@H]2[C@@H](c3ccccc31)[C@@H](CO)N2Cc1ccccc1F here?
A: > 10 µM (inactive)

Q: How did the active concentration turn out when CCNC(=O)C[C@H]1CC[C@@H]2[C@H](COC[C@@H](O)CN2C(=O)C2CC2)O1 was run?
A: > 10 µM (inactive)

Q: COc1ccc(C#Cc2ccc3c(c2)[C@H]2[C@H](CCN2C(=O)c2cccc(F)c2)[C@@H](CO)N3)cc1 was tested. Which active concentration did it give?
A: > 10 µM (inactive)

Q: How did the active concentration turn out when CCS(=O)(=O)N1CC(=O)N2[C@H](C1)[C@@H](c1ccc(C#CC3CCCCC3)cc1)[C@@H]2CO was run?
A: > 10 µM (inactive)

Q: For CCCC#Cc1ccc([C@@H]2[C@H]3CN(C(=O)CN4CCOCC4)CC(=O)N3[C@H]2CO)cc1, which active concentration is on record?
A: > 10 µM (inactive)

Q: C/C=C/c1ccccc1[C@@H]1[C@@H](C#N)N(C(C)=O)[C@@H]1CO was tested. Which active concentration did it give?
A: > 10 µM (inactive)

Q: With CCC(=O)N1CC2(C1)[C@@H](c1ccc(-c3cccc(C)c3)cc1)[C@H](CO)N2S(C)(=O)=O as the compound, how does the active concentration read?
A: > 10 µM (inactive)

Q: For O=C(C[C@@H]1CC[C@@H]2[C@H](COC[C@@H](O)CN2C(=O)Nc2ccc(Cl)c(Cl)c2)O1)NCc1ccc(Cl)cc1, which active concentration is on record?
A: > 10 µM (inactive)

Q: How did the active concentration turn out when COCC(=O)N1CC2(C1)CN(Cc1nccs1)[C@@H](CO)c1c2c2ccc(OC)cc2n1C was run?
A: > 10 µM (inactive)

Q: How did the active concentration turn out when COc1ccccc1CN1[C@H](CO)[C@H]2c3ccccc3N(C(=O)C3CCCCC3)C[C@H]21 was run?
A: > 10 µM (inactive)

Q: COCC(=O)N1[C@H](C(=O)Nc2ccccc2)[C@@H](CO)[C@@H]2Cn3c(ccc(-c4cccnc4)c3=O)[C@@H]21 was tested. Which active concentration did it give?
A: > 10 µM (inactive)

Q: Which active concentration does the source give for CCCC#Cc1ccc([C@@H]2[C@H](CO)N3C(=O)CN(S(=O)(=O)c4ccccc4C)C[C@@H]23)cc1 here?
A: > 10 µM (inactive)

Q: CCS(=O)(=O)N1CC2(CN(CC3CCOCC3)[C@@H](CO)c3c2c2ccc(OC)cc2n3C)C1 was tested. Which active concentration did it give?
A: > 10 µM (inactive)

Q: With CN1CCCCN2[C@H](C1)[C@H](c1ccc(-c3ccc(F)cc3)cc1)[C@@H]2CO as the compound, how does the active concentration read?
A: > 10 µM (inactive)

Q: Which active concentration does the source give for CN1[C@H](CO)[C@@H]2c3ccccc3N(C(=O)c3ccc(F)cc3)C[C@@H]21 here?
A: > 10 µM (inactive)

Q: How did the active concentration turn out when O=C(CC1CC1)N1[C@H](CO)[C@@H](c2ccccc2)C12CN(Cc1ccccc1F)C2 was run?
A: > 10 µM (inactive)

Q: For O=C(c1ccccc1F)N1CC(=O)N2[C@H](CO)[C@@H](c3ccc(C#Cc4ccccc4)cc3)[C@@H]2C1, which active concentration is on record?
A: > 10 µM (inactive)

Q: O=S(=O)(c1ccccc1)N1CCCCN2[C@H](CO)[C@H](c3ccc(C#CC4CCCC4)cc3)[C@@H]2C1 was tested. Which active concentration did it give?
A: > 10 µM (inactive)

Q: For COC(=O)C[C@@H]1CC[C@@H]2[C@@H](COc3ccc(NC(=O)c4cccc(Cl)c4)cc3C(=O)N2C)O1, which active concentration is on record?
A: > 10 µM (inactive)

Q: O=C(Nc1ccccc1)N1C[C@@H]2[C@H](c3ccccc31)[C@H](CO)N2Cc1ccccc1Cl was tested. Which active concentration did it give?
A: > 10 µM (inactive)

Q: With COc1cccc(C#Cc2ccc([C@H]3[C@@H](CO)N4C(=O)CN(C(=O)Cc5cccnc5)C[C@H]34)cc2)c1 as the compound, how does the active concentration read?
A: > 10 µM (inactive)

Q: Which active concentration does the source give for O=C(C[C@H]1CC[C@@H]2[C@H](COC[C@H](O)CN2C(=O)Cc2ccccc2)O1)NC1CCCC1 here?
A: > 10 µM (inactive)

Q: For COc1ccc2c3c(n(C)c2c1)[C@H](CO)N(Cc1cccc(F)c1)CC31CCN(C(=O)Cc2ccccc2)CC1, which active concentration is on record?
A: > 10 µM (inactive)

Q: For COc1cccc(NC(=O)N2CC(=O)N3[C@@H](CO)[C@H](c4ccc(C5=CCCCC5)cc4)[C@@H]3C2)c1, which active concentration is on record?
A: > 10 µM (inactive)
